Test results from US20260275403A1, “METHOD FOR DETECTION OF NUCLEIC ACID END(S)” (INTODNA SPÓLKA AKCYJNA, priority 2023, published 2026).
“Also recorded” adds a separate entry of the source.

Legend:
human cells U2OS WT = system: human cells U2OS WT
Experimental: (§1) • 1. Proteinase K treatment of the biological material for 30 seconds (at a concentration of about 7 μg/mL (1:350 dilution of proteinase K stock concentration of 2.5 mg/mL), solution in PBS) at about 22° C. (i.e. room temperature) • 2. (optional) incubation with 1 mM PMSF in PBS for 5 minutes at about 22° C. • 3. (optional) rinse with PBS
(§2) • 5. Polymerase I reaction at 37° C. with polymerase I enzyme, […], biotin-16-dUTP, biotin-16-dCTP, and dGTP • 6. (optional) rinse with buffer
(§3) • 1. (optional) 60 min incubation in Navinci Blocking Buffer at 37° C. • 2. 60 min incubation in 1:100 rabbit monoclonal anti-PMS2 (or PMS1 or MLH1) antibody in Navinci Primary Antibody Diluent at about 22° C. • 3. (optional) PBS rinse • 4. 60 min incubation in 1:100 mouse monoclonal anti-biotin antibody in Navinci Primary Antibody Diluent at about 22° C. • 5. (optional) PBS rinse
(§4) • 1. PLA probes binding reaction at 37° C. (Navinci PLA reagents and standard protocol) • 2. Reaction A at 37° C. • 3. Reaction B at 37° C. • 4. Reaction C at 37° C.
In vehicle conditions the operation medium was changed to a fresh one with supplementation of 0.1% sterile DMSO and left to rest for the incubation time.

HAP1 PMS2 KO cells = conditions: 6TG 1 uM 48 h treatment
Experimental: as §1, §2, §3
(§5) • 1. PLA probes binding reaction at 37° C. (Navinci PLA reagents and standard protocol) • 2. Reaction A at 37° C. • 3. Reaction B at 37° C. • 4. Reaction C at 37° C. […]
(§6) When cell confluence reached 90%, cells were washed with sterile PBS (without Ca^2+ and Mg^2+) and incubated for 2 min with 2 mL of 0.25% trypsin solution with EDTA. Trypsin was inactivated with the culture medium containing FBS and the collected cells were counted in the Burker chamber. […]

HAP1 parental cells = conditions: 6TG at a higher concentration
Experimental: as §1, §2, §3, §5, §6

HAP1 cells (WT and KO) = system: HAP1 cells (WT and KO)
Experimental: as §1, §2, §3, §4
After 24 h of rest the operation medium was changed to a fresh one with supplementation of 1 μM or 10 μM 6-Tioguanine (6TG) in DMSO and left to rest for the incubation time 48h (final DMSO concentration was 0.1% in medium in each experimental condition). […]

[1] = system: NCI-H1693 (i.e. HR deficient cell line); test: dSTRIDE-RAD51 (dSTRIDE-HR), RAD51-associated double-strand DNA breaks; type: cell-based, human; conditions: NCI-H1693, 5 μM or 50 μM etoposide, 48h
Experimental: (§7) • 1. […] (i.e. room temperature) • 2. […] (optional) rinse with PBS
(§8) • 1. TdT reaction at 37° C. with BrdU and TdT enzyme • 2. (optional) rinse with PBS
(§9) • 6. […] 7. […] (optional) PBS rinse • 9. […] (optional) PBS rinse
as §4
(§10) NCI-H1693 and NCI-H661 were purchased from ATCC cell culture collection (18.05.2022). The detailed cell culture description is listed on Table 16. […] The master bank collection was prepared form #1 passage.
(§11) (also included passage number).
(§12) The labelling was performed according to protocols described in Examples 2 or 3.

[2] = system: NCI-H661 (i.e. HR proficient cell line); test: as above; type: cell-based, human; conditions: 48h; for number of dSTRIDE-HR (RAD51) foci: NCI-H661, 5 μM or 50 μM etoposide
Experimental: as §7, §8, §9, §4, §10, §11, §12

[3] = system: NCI-H1693 (i.e. HR deficient) cell line; test: dSTRIDE-RPA, RPA70-associated double-strand DNA breaks; type: cell-based, human; conditions: 48h
Experimental: as §8
(§13) • 1. […] (optional) PBS rinse • 4. […] (optional) PBS rinse
as §4, §10, §11, §12

[4] = system: NCI-H661 (i.e. HR proficient cell line); test: as above; type: cell-based, human; conditions: NCI-H661, 5 μM or 50 μM etoposide, 48h
Experimental: as §8, §13, §4, §10, §11, §12

[5] = system: NCI-H1693 (i.e. HR deficient) cell line; test: dSTRIDE, double-strand DNA breaks; type: cell-based, human; conditions: 48h; for number of double-strand DNA breaks detected by dSTRIDE: NCI-H1693, 5 μM or 50 μM etoposide
Experimental: as §10, §11, §12

[6] = system: NCI-H661 (i.e. HR proficient cell line); test: dSTRIDE, double-strand DNA breaks; type: cell-based, human; conditions: 48h; for number of double-strand DNA breaks detected by dSTRIDE: NCI-H661, 5 μM or 50 μM etoposide
Experimental: as §10, §11, §12

[7] = NCI-H1693 versus NCI-H661, 50 uM etoposide

SMILES: Nc1nc2[nH]cnc2c(=S)[nH]1 [6TG, 6-Tioguanine]
- maximum number of sSTRIDE MMR foci per nucleus (human cells U2OS WT; Sample 4, 6TG treated U2OS WT cells, 48 h (6TG 100nM per Table 3), antigen retrieval 1 (proteinase K 2 min)): 3 foci per nucleus
- response in number of foci detected after 6TG treatment (quantitative image analysis) (human cells U2OS WT; U2OS WT, 6TG 48 h, antigen retrieval 1 (proteinase K 2 min)): no response
- number of foci in the nucleus after treatment (human cells U2OS WT; U2OS WT, 48 h 6TG in different concentration, Abcam antibody, antigen retrieval method v2): did not significantly increase number of foci
- sSTRIDE MMR readouts level of 6TG treated cells versus non-treated samples (human cells U2OS WT; U2OS WT, Abcam antibody, 6TG 250 nM-10 μM, 24 h or 48 h, antigen retrieval method 2): lower than in the non-treated samples
- number of sSTRIDE-MMR fluorescence foci (HAP1 PMS2 KO cells): does not result in a significant increase
- level of sSTRIDE-MMR signals (HAP1 parental cells): elevated level of sSTRIDE-MMR signals
- sSTRIDE-MMR (MLH1) readouts (HAP1 cells (WT and KO); HAP1 PMS2 WT and KO, 6TG treatment): increase in sSTRIDE-MMR (MLH1) readouts
- PMS1 at SSBs (sSTRIDE-PMS1) (HAP1 cells (WT and KO); after treatment with 6TG): engaged in MMR processes

SMILES: COc1cc([C@@H]2c3cc4c(cc3[C@@H](O[C@@H]3O[C@@H]5CO[C@@H](C)O[C@H]5[C@H](O)[C@H]3O)[C@H]3COC(=O)[C@H]23)OCO4)cc(OC)c1O [etoposide, Etoposide]
- number of RAD51-associated double-strand DNA breaks detected by dSTRIDE-RAD51 [1]: no response
- number of RAD51-associated double-strand DNA breaks detected by dSTRIDE-RAD51 ([1]; listed as Etoposide): did not results in a detectable increase; also recorded: no response
- number of dSTRIDE-HR (RAD51) foci [2]: dose-dependent increase; also recorded: dose-dependent response
- number of dSTRIDE-HR (RAD51) foci ([2]; listed as Etoposide): increase in the number of visible fluorescence foci
- number of RAD51-associated double-strand DNA breaks detected by dSTRIDE-RAD51 ([2]; NCI-H661, 50 uM etoposide): significant increase
- number of RPA-associated double-strand DNA breaks detected by dSTRIDE-RPA ([3]; NCI-H1693, 5 μM or 50 μM etoposide): dose-dependent increase in the number of dSTRIDE-RPA foci
- dSTRIDE-RPA foci, cell line comparison [3, 7]: more dSTRIDE-RPA foci detected in HR deficient cell line
- number of RPA-associated double-strand DNA breaks detected by dSTRIDE-RPA [4]: dose-dependent increase in the number of dSTRIDE-RPA foci; also recorded: dose-dependent response
- number of double-strand DNA breaks detected by dSTRIDE [5]: increase in the number of double-strand DNA breaks; also recorded: dose-dependent increase in the number of DSBs; also recorded: dose-dependent formation of double-strand DNA breaks
- number of double-strand DNA breaks detected by dSTRIDE ([5]; listed as Etoposide): efficiently induces DSBs
- increase in DSBs (dSTRIDE), cell line comparison ([5]; NCI-H1693, 5 um etoposide): comparable in both cell lines
- number of DSBs (dSTRIDE), cell line comparison [5, 7]: more profound increase; also recorded: more DSBs are induced in HR deficient than in HR proficient cell lines
- number of double-strand DNA breaks detected by dSTRIDE [6]: dose-dependent increase in the number of DSBs; also recorded: dose-dependent response
- number of double-strand DNA breaks detected by dSTRIDE ([6]; listed as Etoposide): efficiently induces DSBs
- increase in DSBs (dSTRIDE), cell line comparison ([6]; NCI-H661, 5 um etoposide): comparable in both cell lines
